Measurements reported in US20250377351A1, “METHOD FOR IDENTIFYING EFFECTIVE TREATMENTS AGAINST NEURODEGENERATIVE DISORDERS” (AcuraStem Incorporated, priority 2018, published 2025).

What was measured:
Format in all cases: cell-based, human
[1] = tested on: healthy control iMN lines; test: iMN survival assay in healthy control lines; settings: 1 μM, 3 weeks, five healthy control lines
Protocol: (§1) Daily imaging was performed to collect data at multiple time points over ˜2 weeks, and then analysis of the data enabled single cell longitudinal tracking during the progressive stages of cell death. The hazard ratio (hR) derived from the Cox model is used to indicate the survival rate of neurons, where a ratio greater than 1 indicates a negative association with survival. A P value is also calculated, which functions as a statistical test of the two hazard functions using the Wald test. In addition, a standard deviation, which replicates the hR value, and survival curves are calculated and graphed. […]
(§2) Induced neuron survival assay: Hb9::RFP^+iMNs appeared between days 13-16 after retroviral transduction. […] Neurons were scored as dead when their soma was no longer detectable by RFP fluorescence. All neuron survival assays were performed at least twice, with equal numbers of neurons from three individual replicates from one of the trials being used for the quantification shown. All trials quantified were representative of other trials of the same experiment. […]

[2] = tested on: C9-ALS iMN lines; test: iMN survival assay (longitudinal tracking, hazard ratio vs DMSO) in C9-ALS lines; settings: 3 μM, 2 weeks, media change every 3 days, three C9-ALS iMN lines
Protocol: as §1, §2

[3] = tested on: sporadic ALS (sALS) iMNs; test: iMN survival assay in sporadic ALS lines; settings: screen hits
Protocol: as §1, §2

[4] = tested on: ALS patient iMNs; test: iMN survival assay in ALS patient motor neurons (line type not specified); settings: hR vs DMSO
Protocol: as §1, §2

Cc1cccc(/C=N/Nc2cc(N3CCOCC3)nc(OCCc3ccccn3)n2)c1 [Apilimod]
iMN survival, treatment vs DMSO group [1]: No significance difference
iMN survival, hazard ratio of treatment vs DMSO [2]: significant beneficial effect
potency among hit compounds efficacious against sporadic ALS patient iMNs [3]: among the most potent

CC1=NN(c2ccccc2)C(=O)C1 [edaravone]
performance in patient motor neurons (hR) of drugs tested in ALS clinical trials [4]: do best

Nc1nc2ccc(OC(F)(F)F)cc2s1 [riluzole]
performance in patient motor neurons (hR) of drugs tested in ALS clinical trials [4]: do best
